# Data published in patent publication US9603889B2, “IAP antagonists” (BRISTOL-MYERS SQUIBB COMPANY, priority 2012, dated 2017).
# pIC50: −log10 of the molar value.
# Biological target: XIAP BIR3 (N-His-Tb-BIR3(241-356, XIAP)) (Homo sapiens (Human), UniProt P98170)
# Assay type: binding
# Settings: 130 nM N-His-Tb-BIR3(241-356, XIAP), 1.4 nM fluoresceinated modified SMAC peptide, 60 minutes room temperature; read-out: XIAP BIR3 FPA IC50
# Sequence of XIAP BIR3 (N-His-Tb-BIR3(241-356, XIAP)) (P98170 241-356): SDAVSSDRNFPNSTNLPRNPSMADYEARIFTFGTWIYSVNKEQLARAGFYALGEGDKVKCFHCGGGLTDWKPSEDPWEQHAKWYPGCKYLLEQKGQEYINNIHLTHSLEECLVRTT
row,Structure (SMILES),pIC50
1,"CN[C@@H](C)C(=O)N[C@H](C(=O)N1C[C@@H](NC(=O)c2ccc(CN(C(=O)[C@@H]3Cc4ccccc4CN3C(=O)[C@@H](NC(=O)[C@H](C)NC)C(C)(C)C)[C@H](C)c3ccc4ccccc4c3)cc2)C[C@H]1C(=O)N[C@@H]1CCCc2ccccc21)C(C)(C)C [Example 15, (S)-2-((S)-3,3-Dimethyl-2-((S)-2-(methylamino)propanamido)butanoyl)-N-(4-(((3S,5S)-1-((S)-3,3-dimethyl-2-((S)-2-(methylamino)propanamido)butanoyl)-5-(((R)-1,2,3,4-tetra-hydronaphthalen-1-yl)carbamoyl)pyrrolidin-3-yl)carbamoyl)benzyl)-N-((R)-1-(naphthalen-2-yl)ethyl)-1,2,3,4-tetrahydro-isoquinoline-3-carboxamide]",7.05
2,CN[C@@H](C)C(=O)N[C@H](C(=O)N1CCc2ccccc2[C@H]1C(=O)N(CCc1ccccc1)Cc1ccc(C(=O)NC2C[C@@H](C(=O)NC3CCCc4ccccc43)N(C(=O)[C@@H](NC(=O)[C@H](C)NC)C(C)(C)C)C2)cc1)C(C)(C)C (some centres unmarked) [Example 16],7.15
3,"CN[C@@H](C)C(=O)N[C@H](C(=O)N1C[C@@H](NC(=O)c2ccc(CN(C(=O)[C@@H]3Cc4ccccc4CN3C(=O)[C@@H](NC(=O)[C@H](C)NC)C(C)(C)C)[C@@H](C)c3cccc(Cl)c3)cc2)C[C@H]1C(=O)N[C@@H]1CCCc2ccccc21)C(C)(C)C [Example 18, (S)-N-((S)-1-(3-Chlorophenyl)ethyl)-2-((S)-3,3-dimethyl-2-((S)-2-(methylamino)propanamido)butanoyl)-N-(4-(((3S,5S)-1-((S)-3,3-dimethyl-2-((S)-2-(methylamino)propanamido)butanoyl)-5-(((R)-1,2,3,4-tetrahydro-naphthalen-1-yl)carbamoyl)pyrrolidin-3-yl)carbamoyl)benzyl)-1,2,3,4-tetrahydro-isoquinoline-3-carboxamide]",6.92
4,"CN[C@@H](C)C(=O)N[C@H](C(=O)N1CCc2ccccc2[C@H]1C(=O)N(Cc1ccc(C(=O)N[C@H]2C[C@@H](C(=O)N[C@@H]3CCCc4ccccc43)N(C(=O)[C@@H](NC(=O)[C@H](C)NC)C(C)(C)C)C2)cc1)[C@H](C)c1ccccc1F)C(C)(C)C [Example 19, (S)-2-((S)-3,3-Dimethyl-2-((S)-2-(methylamino)propanamido)butanoyl)-N-(4-(((3S,5S)-1-((S)-3,3-dimethyl-2-((S)-2-(methylamino)propanamido)butanoyl)-5-(((R)-1,2,3,4-tetra-hydronaphthalen-1-yl)carbamoyl)pyrrolidin-3-yl)carbamoyl)benzyl)-N-((R)-1-(2-fluorophenyl)ethyl)-1,2,3,4-tetrahydro-isoquinoline-1-carboxamide]",6.54
5,"CC[C@H](c1ccccc1)N(Cc1ccc(C(=O)N[C@H]2C[C@@H](C(=O)N[C@@H]3CCCc4ccccc43)N(C(=O)[C@@H](NC(=O)[C@H](C)NC)C(C)(C)C)C2)cc1)C(=O)[C@@H]1Cc2ccccc2CN1C(=O)[C@@H](NC(=O)[C@H](C)NC)C(C)(C)C [Example 20, (S)-2-((S)-3,3-Dimethyl-2-((S)-2-(methylamino)propanamido)butanoyl)-N-(4-(((3S,5S)-1-((S)-3,3-dimethyl-2-((S)-2-(methylamino)propanamido)butanoyl)-5-(((R)-1,2,3,4-tetrahydro-naphthalen-1-yl)carbamoyl)pyrrolidin-3-yl)carbamoyl)benzyl)-N-((R)-1-phenylpropyl)-1,2,3,4-tetra-hydroisoquinoline-3-carboxamide]",6.96
